This is an account of results in article PMC7143076, “Anion Inhibition Studies of the β-Class Carbonic Anhydrase CAS3 from the Filamentous Ascomycete Sordaria macrospora” (Metabolites, 2020).

The first experiment deals with T1, CAS3 (Sordaria macrospora, UniProt F7VU04).
T1 construct: gene SMAC_03179
T1 sequence (F7VU04 1-174 limits assumed): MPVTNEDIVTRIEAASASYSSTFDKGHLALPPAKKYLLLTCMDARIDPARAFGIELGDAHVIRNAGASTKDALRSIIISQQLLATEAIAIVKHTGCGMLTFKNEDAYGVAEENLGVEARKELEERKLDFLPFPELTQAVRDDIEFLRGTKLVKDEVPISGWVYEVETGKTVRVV
The experiment is described as follows: stopped-flow CO2 hydrase assay. The experiment is classed as biochemical. The note with it: read-out: CAS2 ^b; CO2 1.7-17 mM; pH 8.3, 10-20 mM TRIS, 10 mM NaClO4, 20 °C; 15 min preincubation; sodium salt.
`O=C(O)O` [CO3^2-]: the Ki stood at 8 mM.

The experiment is the same for the next values; noted with them: read-out: CAS3 ^c.
`N#CO` [CNO^-]: the Ki was 3.2 mM.
Still for that read-out and setting: the figure for `S` [HS^-] is 8.3 mM.
Same read-out and setting: as for `[N-]=[N+]=[N-]` [N3^-], the figure is 7.2 mM.
As for `N#C[SeH]` [SeCN^-], the Ki worked out at 7.1 mM.
On the same count and under the same terms, as for `O=[Se](=O)(O)O` [SeO4^2-], the figure is 3.4 mM.
The same measure, in the same setting: the figure for `O=[Te](=O)(O)O` [TeO4^2-] is 8.1 mM.

Staying with this experiment, now noted: read-out: CAS3 ^c; CO2 1.7-17 mM; pH 8.3, 10-20 mM TRIS, 10 mM NaClO4, 20 °C; 15 min preincubation.
For `NS(N)(=O)=O` [H2NSO2NH2], the Ki worked out at 0.094 mM.
The same measure, in the same setting: the figure for `OB(O)c1ccccc1` [Ph-B(OH)2] is 0.097 mM.

The same experiment, now with this note: read-out: CAS3 ^c; CO2 1.7-17 mM; pH 8.3, 10-20 mM TRIS, 10 mM NaClO4, 20 °C; 15 min preincubation; sodium salt.
Consider `S=C(S)S` [CS3^2-], for which the Ki was determined as 8.6 mM.
In the case of `CCN(CC)C(=S)S` [Et2NCS2^-], the Ki came to 0.89 mM.
On the same count and under the same terms, as for `NS(=O)(=O)O` [H2NSO3H], the figure is 0.095 mM; as for `O=C(O)O` [HCO3^-], 3.4 mM.
Same read-out and setting: as for `O=NO` [NO2^-], the figure is 8.3 mM; as for `O=[N+]([O-])O` [NO3^-], 8.5 mM; as for `N#CS` [SCN^-], 7.3 mM.
